Assays:
[1] = target: T1, Thyroid hormone receptor beta (Homo sapiens, UniProt P10828); test: Half-maximum activation of human Thyroid hormone receptor beta 1 (hTRbeta1)
T1 sequence (P10828 whole entry): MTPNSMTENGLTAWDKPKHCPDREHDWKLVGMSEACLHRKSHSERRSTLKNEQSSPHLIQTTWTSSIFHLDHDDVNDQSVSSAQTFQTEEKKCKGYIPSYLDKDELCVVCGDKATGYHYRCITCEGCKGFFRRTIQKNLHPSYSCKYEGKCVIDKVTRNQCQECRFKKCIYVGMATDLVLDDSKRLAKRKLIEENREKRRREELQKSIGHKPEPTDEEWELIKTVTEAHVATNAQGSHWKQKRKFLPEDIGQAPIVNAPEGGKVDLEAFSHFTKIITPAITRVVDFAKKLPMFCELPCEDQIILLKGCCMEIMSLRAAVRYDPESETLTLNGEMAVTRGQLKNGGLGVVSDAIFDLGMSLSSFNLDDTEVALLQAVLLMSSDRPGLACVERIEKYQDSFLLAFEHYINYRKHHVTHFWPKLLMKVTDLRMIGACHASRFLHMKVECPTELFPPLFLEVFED

[2] = target: T1, Thyroid hormone receptor beta
[3] = target: T2, Thyroid hormone receptor alpha (Homo sapiens, UniProt P10827)
T2 sequence (P10827 whole entry): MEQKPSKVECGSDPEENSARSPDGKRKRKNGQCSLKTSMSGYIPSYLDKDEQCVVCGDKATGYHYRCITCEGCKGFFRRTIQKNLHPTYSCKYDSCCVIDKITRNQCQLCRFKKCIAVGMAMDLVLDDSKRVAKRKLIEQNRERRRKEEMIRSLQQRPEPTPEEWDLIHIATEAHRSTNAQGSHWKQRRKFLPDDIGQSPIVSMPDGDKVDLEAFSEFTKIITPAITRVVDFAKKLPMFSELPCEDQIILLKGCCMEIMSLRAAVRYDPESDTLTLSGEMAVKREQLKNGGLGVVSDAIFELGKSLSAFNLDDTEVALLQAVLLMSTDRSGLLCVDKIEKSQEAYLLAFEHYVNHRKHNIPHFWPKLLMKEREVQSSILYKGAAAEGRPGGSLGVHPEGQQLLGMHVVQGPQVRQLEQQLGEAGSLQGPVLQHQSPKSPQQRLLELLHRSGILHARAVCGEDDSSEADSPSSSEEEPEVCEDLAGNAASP

[4] = target: T2, Thyroid hormone receptor alpha; test: Half-maximum activation of human Thyroid hormone receptor alpha-1 (hTRalpha1)

SMILES | EC50 [1] | Kd [2] | Kd [3] | IC50 [4] | IC50 [1]
CCCCCc1ccc(C#Cc2cc(Cc3c(C)cc(OCC(=O)O)cc3C)cc(C(C)C)c2O)cc1 | 380 nM | 0.52 nM | 5.2 nM | – | –
Cc1cc(OCC(=O)O)cc(C)c1Cc1cc(C#Cc2ccc([N+](=O)[O-])cc2)c(O)c(C(C)C)c1 | – | 20 nM | 93 nM | 950 nM | 370 nM
Cc1cc(OCC(=O)O)cc(C)c1Cc1cc(C#Cc2ccc(N)cc2)c(O)c(C(C)C)c1 | – | 90 nM | 330 nM | – | –
Cc1cc(OCC(=O)O)cc(C)c1Cc1cc(-c2ccc([N+](=O)[O-])cc2)c(O)c(C(C)C)c1 | – | 35 nM | 200 nM | 5000 nM | 680 nM
Cc1cc(OCC(=O)O)cc(C)c1Cc1cc(C#Cc2ccccc2)c(O)c(C(C)C)c1 | 500 nM | 37 nM | 490 nM | – | –

From ChEMBL document CHEMBL1135520, “Rational design and synthesis of a novel thyroid hormone antagonist that blocks coactivator recruitment” (J Med Chem, 2002)
